Reference: patent US20160318892A1, “PRODRUG COMPOUNDS” (PROXIMAGEN LIMITED, priority 2013, published 2016)
≈ marks a conversion by molar mass, not a printed value. Where two headings read alike, the source gives them in different places.

Key:
[1] = Solubility in aqueous solutions; type: physicochemical; settings: aqueous solution
Excerpt: In an embodiment prodrugs of the present invention are suitable for oral administration. The skilled person understands that the pH of the gastrointestinal tract changes along its length. For example, the stomach has a pH of around pH 1.5 and the GI tract after the stomach has a pH of around 5 to 7.5. For more detail see, for example, Measurement of gastrointestinal pH profiles in normal ambulant human subjects, Gut. 1988 August; 29(8): 1035-1041. Improved solubility is expected to result in improved absorption, and therefore improved oral bioavailability. Thus improved solubility at any pH value between around pH 1.5 to 8 is expected to improve oral bioavailability. Compounds of the invention were assessed for solubility in aqueous solutions having a pH of from 2 to 10. In an embodiment prodrugs of the invention have a solubility of >0.5 mg/mL in an aqueous solution having a pH of from 2 to 8. In an embodiment prodrugs have a solubility of >5.0 mg/mL, or >10.0 mg/mL, >100.0 mg/mL, or >200.0 mg/mL. In an embodiment the prodrugs have the aforementioned aqueous solubility at a pH within the range of from 4 to 8, or from 6 to 8.
In an embodiment prodrugs of the invention are administered intravenously. High prodrug solubility is advantageous in order to reduce the volume of solution administered to the patient, and to reduce the risk of damage to the circulatory system. Solubility of >10 mg/mL is preferred. Yet more preferred is solubility of >30 mg/mL or >100.0 mg/mL. Yet more preferred is solubility of >200.0 mg/mL. The solubility is measured in an aqueous solution having a pH of from 2 to 10, which pH range is advantageous for intravenous prodrug delivery. See, for example, A guide on intravenous drug compatibilities based on their pH, Nasser S C et al./Pharmacie Globale (IJCP) 2010, 5 (01)). In an embodiment the prodrugs of the claimed invention have solubility of >10 mg/mL in an aqueous solution having a pH of from 2 to 10.

high K+ evoked CSD [2] = settings: cats; cited from earlier work
high K+ evoked CSD [3] = settings: rats; cited from earlier work
[4] = tested on: unique stereo-selective site in rat brain; settings: cited from earlier work
[5] = tested on: unique stereo-selective site in human brain; settings: cited from earlier work

CC(=O)c1ccc2c(c1)[C@H](NC(=O)c1ccc(F)cc1)[C@@H](OCOP(=O)([O-])O)C(C)(C)O2.[Na+] [Example 2, Sodium {[(3R,4S)-6-Acetyl-4-[(4-fluorobenzene)amido]-2,2-dimethyl-3,4-dihydro-2H-1-benzopyran-3-yl]oxy}methyl hydrogen phosphate]
solubility ([1]; aqueous buffer, pH 4.0): > 10000 µg/mL

CC(=O)c1ccc2c(c1)[C@H](NC(=O)c1ccc(F)cc1)[C@@H](OC(=O)[C@@H](N)C(C)C)C(C)(C)O2.Cl [Example 3, (3R,4S)-6-Acetyl-4-[(4-fluorobenzene)amido]-2,2-dimethyl-3,4-dihydro-2H-1-benzopyran-3-yl (2S)-2-amino-3-methylbutanoate hydrochloride]
solubility ([1]; pH 3.6, aqueous buffer): < 1000 µg/mL

CC(=O)c1ccc2c(c1)[C@H](NC(=O)c1ccc(F)cc1)[C@@H](OC(=O)OCCN1CCOCC1)C(C)(C)O2.Cl [Example 8, (3R,4S)-6-Acetyl-4-[(4-fluorobenzene)amido]-2,2-dimethyl-3,4-dihydro-2H-1-benzopyran-3-yl 2-(morpholin-4-yl)ethyl carbonate hydrochloride]
solubility ([1]; aqueous buffer, pH 4.0): ~10000 µg/mL

CC(=O)c1ccc2c(c1)[C@H](NC(=O)c1ccc(F)cc1)[C@@H](OC(=O)CNC(C)C)C(C)(C)O2.Cl [Example 7, (3R,4S)-6-Acetyl-4-[(4-fluorobenzene)amido]-2,2-dimethyl-3,4-dihydro-2H-1-benzopyran-3-yl 2-[(propan-2-yl)amino]acetate hydrochloride]
solubility ([1]; pH 3.5, aqueous buffer): < 1000 µg/mL

CC(=O)c1ccc2c(c1)[C@H](NC(=O)c1ccc(F)cc1)[C@@H](OP(=O)(O)O)C(C)(C)O2 [Example 1, {[(3R,4S)-6-Acetyl-4-[(4-fluorobenzene)amido]-2,2-dimethyl-3,4-dihydro-2H-1-benzopyran-3-yl]oxy}phosphonic acid]
solubility ([1]; aqueous buffer, pH 7.0): ~10000 µg/mL (≈ 22.9 mM)

CC(=O)c1ccc2c(c1)[C@H](NC(=O)c1ccc(F)cc1)[C@@H](OC(=O)CNC(=O)[C@@H]1CCCN1)C(C)(C)O2.Cl [Example 6, (3R,4S)-6-Acetyl-4-[(4-fluorobenzene)amido]-2,2-dimethyl-3,4-dihydro-2H-1-benzopyran-3-yl 2-[(2S)-pyrrolidin-2-ylformamido]acetate hydrochloride]
solubility ([1]; pH 6.1, aqueous buffer): > 10000 µg/mL

CC(=O)c1ccc2c(c1)[C@H](NC(=O)c1ccc(F)cc1)[C@@H](OC(=O)CN)C(C)(C)O2.Cl [Example 5, (3R,4S)-6-Acetyl-4-[(4-fluorobenzene)amido]-2,2-dimethyl-3,4-dihydro-2H-1-benzopyran-3-yl 2-aminoacetate hydrochloride]
solubility ([1]; pH 5.1, aqueous buffer): > 5000 µg/mL

CC(=O)c1ccc2c(c1)[C@H](NC(=O)c1ccc(F)cc1)[C@@H](OC(=O)[C@@H](NC(=O)[C@@H](N)C(C)C)C(C)C)C(C)(C)O2.Cl [Example 4, (3R,4S)-6-Acetyl-4-[(4-fluorobenzene)amido]-2,2-dimethyl-3,4-dihydro-2H-1-benzopyran-3-yl (2S)-2-[(2S)-2-amino-3-methylbutanamido]-3-methylbutanoate hydrochloride]
solubility ([1]; pH 4.2, aqueous buffer): > 10000 µg/mL

CC(=O)c1ccc2c(c1)[C@H](NC(=O)c1ccc(F)c(Cl)c1)[C@H](O)C(C)(C)O2 [Tonabersat]
inhibition of high K+ evoked CSD (high K+ evoked CSD [2]): inhibits
inhibition of high K+ evoked CSD (high K+ evoked CSD [3]): inhibits
binding affinity to unique stereo-selective site [4]: high affinity
binding affinity to unique stereo-selective site [5]: high affinity
